{"source": "patent US20250121083A1", "about": "“Tumor-Associated Calcium Signal Transducer 2 (TACSTD2) Antibody-Maytansine Conjugates and Methods of Use Thereof” (priority 2021, published 2025)", "molecules": {"B1": {"name": "DS-1062: Daiichi Sankyo's TROP-2-targeted ADC (conjugate, chains of the INN, looked up)", "VH": "QVQLVQSGAEVKKPGASVKVSCKASGYTFTTAGMQWVRQAPGQGLEWMGWINTHSGVPKYAEDFKGRVTISADTSTSTAYLQLSSLKSEDTAVYYCARSGFGSSYWYFDVWGQGTLVTVSS", "VL": "DIQMTQSPSSLSASVGDRVTITCKASQDVSTAVAWYQQKPGKAPKLLIYSASYRYTGVPSRFSGSGSGTDFTLTISSLQPEDFAVYYCQQHYITPLTFGQGTKLEIK", "modifications": "deruxtecan payload", "notes": "Daiichi Sankyo's TROP-2-targeted ADC"}}, "key": {"[1]": {"system": "TACSTD2-positive cell lines Bx-PC-3, NCI-H87, NCI-H292, and MDA-MB-468", "experiment": "In vitro cytotoxicity, Cell Titer-Glo, 5 d", "type": "cell-based", "conditions": "120 h, range over the four tested cell lines, read-out: IC50 concentrations", "protocol": "The TACSTD2-positive cell lines, Bx-PC-3, […], NCI-H292, and MDA-MB-468 were obtained from the ATCC cell bank. The cells were maintained in RPMI 1640 or DMEM medium (Cellgro) supplemented with 10 or 20% fetal bovine serum (Invitrogen) and Glutamax (Invitrogen). 24 h prior to plating, cells were passaged to ensure log-phase growth. On the day of plating, 5000 cells/well were seeded onto 96-well plates in 100 μL normal growth medium supplemented with 10 IU penicillin and 10 μg/mL streptomycin (Cellgro). […] After 5 d, 100 μL/well of Cell Titer-Glo reagent (Promega) was added, and luminescence was measured using a Molecular Devices SpectraMax M5 plate reader. GraphPad Prism software was used for data analysis."}, "MDA-MB-468 cells": {"system": "MDA-MB-468 cells", "experiment": "In vitro cytotoxicity, Cell Titer-Glo, 8 d", "type": "cell-based", "conditions": "Homo sapiens, 192 h", "protocol": "Methods: The TACSTD2-positive cell line, MDA-MB-468 was obtained from the ATCC cell bank. The cells were maintained in DMEM medium supplemented with 10% fetal bovine serum (Invitrogen), 2× Glutamax (Invitrogen) and 1× antibiotic/antimycotic (Corning). On the day of plating, 1500 cells/well were seeded onto 96-well plates in 100 μL normal growth medium. Cells were treated at various concentrations with 20 μL of diluted analytes (sacituzumab compound 21 ADC or free belotecan payload), and the plates were incubated at 37° C. in an atmosphere of 5% CO2. After 8 d, 100 μL/well of Cell Titer-Glo reagent (Promega) was added, and luminescence was measured using a Molecular Devices SpectraMax M5 plate reader. GraphPad Prism software was used for data analysis."}, "NCI-H292 xenograft model": {"system": "NCI-H292 xenograft model", "experiment": "NCI-H292 xenograft study", "type": "in vivo, female SCID Beige mice", "conditions": "26 mg/kg x 4 doses, i.v.; 8 mice per group", "text": "Methods: For the NCI-H292 study, female SCID Beige mice (8 per group) were inoculated subcutaneously with 5 million NCI-H292 cells in PBS. Treatment began when the tumors reached an average of 116 mm^3. For the NCI-N87 study, female BALB/c nude mice (8 per group) were inoculated subcutaneously with 10 million NCI-N87 cells in a 1:1 solution of PBS:Matrigel. Treatment began when the tumors reached an average of 221 mm^3. […] Two general dosing schedules were used: either test articles were delivered once every 3 wk (arrowheads) or they were delivered two times in a three week period, on days 0 and 7 (arrows). The dosing cycles were repeated twice, so that animals in the first dosing group received a total of 2 doses, while the animals in the second dosing group received a total of 4 doses. The animals were monitored twice weekly for body weight and tumor size. Animals were euthanized when tumors reached 2000 mm^3.\nFor the results shown in FIG. 8, CR refers to an individual mouse that has no detectable tumor volume, which could be for only a short time, for example, one observation, or it could be for a longer period. […] The lines in FIG. 8 show the mean tumor volume across all mice in a group. Because 8 mice were used per group, the line shown in FIG. 8 might not go to zero; however, there could still be individual animals that attained CR."}, "[2]": {"conditions": "cited from earlier work"}}, "data": [{"molecule": "COc1cc2cc(c1Cl)N(C)C(=O)C[C@H](OC(=O)[C@H](C)N(C)C(C)=O)[C@]1(C)O[C@H]1[C@H](C)[C@@H]1C[C@@](O)(NC(=O)O1)[C@H](OC)/C=C/C=C(\\C)C2", "note": "[free maytansine, maytansine]", "values": [{"measurement": "IC50", "setting": "[1]", "result": "0.05 to 0.23", "unit": "nM"}, {"measurement": "IC50", "setting": "MDA-MB-468 cells", "result": 0.77, "unit": "nM"}]}, {"molecule": "Trodelvy [reference compound]", "values": [{"measurement": "complete responses (CRs)", "setting": "NCI-H292 xenograft model", "result": "1/8"}]}, {"molecule": "B1", "values": [{"measurement": "intestinal toxicity", "setting": "[2]; 10 mg/kg", "result": "toxicity findings in the intestines"}, {"measurement": "safety signals in healthy tissues that express TROP-2", "setting": "[2]; >10 mg/kg, skin, cornea, oral, esophageal, vaginal mucosa", "result": "key adverse safety signals (including necrosis)"}]}]}
